Measurements as given in US6831079B1, “Vasopressin agonist formulation and process” (American Cyanamid Company, priority 1999, dated 2004).

Legend:
[1] = target: T1, Vasopressin V2 (Rattus norvegicus, UniProt Q00788); experiment: Vasopressin V2 agonist effects in normal conscious homozygous Brattleboro rats with central diabetes insipidus; assay type: in vivo; design: from tissue; host or cells: whole living homozygous Brattleboro rat; the receptor is the animal's own; details: Brattleboro (BB) rats, 10 mg/kg oral; for Osmolality (% Increase): change in osmolality as percent of control; for Urine Volume (% decrease): vs. control, urine collected six hours
T1 sequence (Q00788 whole entry): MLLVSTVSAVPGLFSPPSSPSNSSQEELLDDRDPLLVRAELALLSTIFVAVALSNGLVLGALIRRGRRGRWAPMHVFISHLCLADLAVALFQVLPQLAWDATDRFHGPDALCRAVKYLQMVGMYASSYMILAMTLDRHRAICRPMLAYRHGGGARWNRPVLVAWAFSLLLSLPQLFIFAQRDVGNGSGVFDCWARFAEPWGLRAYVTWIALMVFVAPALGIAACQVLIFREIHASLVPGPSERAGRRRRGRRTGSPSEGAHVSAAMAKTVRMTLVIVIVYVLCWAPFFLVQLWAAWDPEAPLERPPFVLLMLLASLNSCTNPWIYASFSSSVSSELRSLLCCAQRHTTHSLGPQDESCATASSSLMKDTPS
Text: Vasopressin V2 Agonist Effects of Test Compounds in Normal Conscious Homozygous Brattleboro Rats with Central Diabetes Insipidus
Male or female homozygous Brattleboro rats (Harlan Sprague Dawley, Inc., Indianapolis, Ind.) of 250-350 g body weight were supplied with standard rodent diet (Purina Rodent Lab. Chow 5001) and water ad libitum. On the day of test, rats were placed individually into metabolic cages equipped with devices to separate the feces from the urine and containers for collection of urine. Test compound or reference agent was given at an oral dose of 1 to 10 mg/kg in a volume of 10 ml/kg. The vehicle used was 20% dimethylsulfoxide (DMSO) in 2.5% preboiled corn starch. During the test, rats were provided with water ad libitum. Urine was collected for six hours after dosing of the test compound. At the end of six hours, urine volume was measured. Urinary osmolality was determined using a Fiske One-Ten Osmometer (Fiske Associates, Norwood, Mass., 02062) or an Advanced CRYOMATIC Osmometer, Model 3C2 (Advanced Instruments, Norwood, Mass.). Determinations of Na^+, K^+ and Cl^− ion were carried out using ion specific electrodes in a Beckman SYNCHRON EL-ISE Electrolyte System analyzer. This animal model was mainly used for evaluation of potency and duration of action of the active compounds.

[2] = target: T1, Vasopressin V2; experiment: Vasopressin V2 agonist effects in normal conscious water-loaded rats; assay type: in vivo; design: from tissue; host or cells: whole living Sprague-Dawley rat; the receptor is the animal's own (renal, by own knowledge); details: Sprague-Dawley (CD) rats, 10 mg/kg oral; for Osmolality (% Increase): change in osmolality as percent of control; for Urine Volume (% decrease): vs. control, urine collected four hours
How it was run: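 Sprague-Dawley rats (350-500 g, either sex) dosed orally at 10 mg/kg in 20% DMSO/2.5% corn starch, then water-loaded by gavage (30 ml/kg) 30 min later. Urine was collected for 4 h post-dose without food or water. Endpoints were volume, osmolality and Na+, K+, Cl−, with two to three rats per compound.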

| Osmolality (% Increase) [1] | Urine Volume (% decrease) [1] | melting point | Osmolality (% Increase) [2] | Urine Volume (% decrease) [2] | Compound |
| --- | --- | --- | --- | --- | --- |
| 221% | 74% | 155 to 158 °C | – | – | Cn1ncnc1-c1ccc(C(=O)N2Cc3cccn3Cc3ccccc32)cc1 [Example 49, [4-(2-Methyl-2H-[1,2,4]triazol-3-yl)-phenyl]-(5H,11H-pyrrolo[2,1-c][1,4]-benzodiazepin-10-yl)-methanone] |
| 407% | 76% | – | – | – | O=C(c1ccc(-c2ccn(C(=O)c3cccs3)n2)cc1)N1Cc2cccn2Cc2ccccc21 [Example 34, (5H,11-Pyrrolo[2,1-c][1,4]benzodiazepin-10-yl)-{4-[1-(thiophene-2-carbonyl)-1H-pyrazoly-3-yl]phenyl}-methanone] |
| 164% | 66% | 170 to 173 °C | – | – | Cc1ccccc1C(=O)n1ccc(-c2ccc(C(=O)N3Cc4cccn4Cc4ccccc43)cc2)n1 [Example 36, {4-[1-(2-Methyl-benzoyl)-1H-pyrazol-3-yl]-phenyl}-(5H,11H-pyrrolo[2,1-c][1,4]benzodiazepin-10-yl)-methanone] |
| – | – | 133 to 135 °C | 205% | 43% | O=C(c1ccc(-n2cccn2)nc1Cl)N1Cc2cccn2Cc2ccccc21 [Example 99, (2-Chloro-6-pyrazol-1-yl-pyridin-3-yl)-(5H,11H-pyrrolo[2,1-c][1,4]benzodiazepin-10-yl)-methanone] |
| 334% | 81% | – | – | – | CC(=O)n1ccc(-c2ccc(C(=O)N3Cc4cccn4Cc4ccccc43)cc2)n1 [Example 30, 1-{3-[4-(5H,11H-Pyrrolo[2,1-c][1,4]benzodiazepine-10-carbonyl)-phenyl]-pyrazol-1-yl}-ethanone] |
| – | – | 140 to 145 °C | 349% | 79% | Cc1cn(-c2ccc(C(=O)N3Cc4cccn4Cc4ccccc43)cc2)cn1 [Example 64, [4-(4-Methyl-imidazol-1-yl)-phenyl]-(5H,11H-pyrrolo[2,1-c][1,4]-benzodiazepin-10-yl)-methanone] |
| 256% | 66% | 180 to 182 °C | – | – | O=C(c1ccc(-c2ccn(C(=O)c3ccc(Cl)cc3Cl)n2)cc1)N1Cc2cccn2Cc2ccccc21 [Example 38, {4-[1-(2,4-Dichloro-benzoyl)-1H-pyrazol-3-yl]-phenyl}-(5H,11H-pyrrolo[2,1-c][1,4]benzodiazepin-10-yl)-methanone] |
